Assay results from patent US10787640B2, “Producing mesodermal cell types and methods of using the same” (The Board of Trustees of the Leland Stanford Junior …, priority 2015, dated 2020).

Assays:
[1] = tested on: day 3 early somite progenitors; experiment: Patterning of early somite progenitors into sclerotome or dermomyotome; assay type: cell-based, human
Procedure: Day 2 paraxial mesoderm was briefly washed (DMEM/F12) and further differentiated into day 3 early somite/somitomere precursors for 24 hours (1 μM A-83-01+250 nM LDN-193189+1 μM C59+500 nM PD0325901). Subsequently, day 3 early somites were dorsoventrally patterned into either ventral somites/sclerotome (5 nM 21K+1 μM C59) or dorsal somites/dermomyotome (3 μM CHIR99021+150 nM Vismodegib). Sclerotome induction was conducted for 48-72 hours (leading to day 5-6 ventral somite progenitors). […] Media was changed 24 hours for all steps. The Hedgehog agonist 21K, which has been previously described in, e.g., Brunton et al., 2009 the disclosure of which is incorporated herein by reference in its entirety, was commercially synthesized.
Day 3 early somites were briefly washed (DMEM/F12), treated with BMP4+CHIR99021+Vismodegib for 24 hours, washed again (DMEM/F12) and subsequently treated with CHIR99021 (3 μM)+21K (5 nM) for 24 hours. This day 5 dermomyotome was further empirically differentiated towards skeletal muscle-like progeny (using medium containing 2% horse serum, which has been previously described in, e.g., Xu et al. 2013, the disclosure of which is incorporated herein by reference in its entirety) for 12 days, yielding day 17 skeletal muscle-containing populations.
FIG. 11: A) To determine the length of time required for sclerotome differentiation, a qPCR timecourse was performed, encompassing undifferentiated hESCs (D0), day 2 hESC-derived paraxial mesoderm (D2 PXM), day 3 hESC-derived early somite progenitors, and hESC-derived day 3 early somite progenitors that were exposed to sclerotome inductive conditions (5 nM 21K+1 μM C59) for 24 or 48 hours. B) Description of EF1α-BCL2-T2A-GFP lentiviral construct (otherwise known as “C306”; top) and FACS plot of a stably-transduced polyclonal H9 hESC line with near-uniform expression of the BCL2-T2A-GFP transgene (green contour) by comparison to uncolored wild-type hESCs (bottom) (see above methods for details of derivation of the H9 BCL2-T2A-GFP hESC line). C) Higher-magnification picture of BCL2-T2A-GFP hESC-derived sclerotome ectopic bone grafts (originally described above in FIG. 4, panel E), showing that despite the near-ubiquitous expression of GFP throughout the ectopic bone graft (indicating its human provenance), the blood vessels are clearly GFP-negative and therefore presumably derived from the mouse host; scale bar=1 mm. […] L) Description of EF1a-BCL2-T2A-GFP lentiviral construct (otherwise known as “C306”; top) and FACS plot of a stably-transduced polyclonal H9 hESC line with near-uniform expression of the BCL2-T2A-GFP transgene (green contour) by comparison to uncolored wild-type hESCs (bottom) (see the methods described herein for details of derivation of the H9 BCL2-T2A-GFP hESC line). M) Description of UBC-Luciferase-T2A-tdTomato lentiviral construct (top); bioluminescent assay of cultured H9 UBC-Luciferase-T2A-tdTomato hESCs validates that these cells are luciferase-expressing in vitro (bottom).

[2] = tested on: hESC-derived primitive streak; experiment: Paraxial versus lateral/cardiac mesoderm specification from primitive streak; assay type: cell-based, human
Procedure: Subsequently, day 1 anterior primitive streak was briefly washed (DMEM/F12) and differentiated towards day 2 paraxial mesoderm for 24 hours (1 μM A-83-01+3 μM CHIR99021+250 nM LDN-193189+20 ng/mL FGF2). Separately, day 1 mid primitive streak was differentiated towards day 2 lateral mesoderm for 24 hours (1 μM A-83-01+30 ng/mL BMP4+1 μM C59; with 2 μM SB-505124 sometimes used instead of A-83-01).
B) To assess whether FGF/ERK signaling was permissive for both paraxial and lateral/cardiac mesoderm specification, hESCs were differentiated into primitive streak for 24 hours, and then transferred into (i) A-83-01+DM3189 (“AD”; permissive for paraxial mesoderm) or (iii) A-83-01+BMP4+C59 (“AB+C59”; permissive for lateral/cardiac mesoderm) for 24 hours in the presence or absence of a FGF agonist (FGF2, 10-20 ng/mL), an FGFR inhibitor (PD173074, 100 nM) or a MAPK/ERK inhibitor (PD0325901, 500 nM) for 24 hours and qPCR for all experiments was conducted on day 2 (that is, after 48 total hours of hESC differentiation). To assess whether TGFβ signaling altered paraxial, intermediate and lateral/cardiac mesoderm specification, hESCs were differentiated into primitive streak for 24 hours, and then transferred into (ii) DM3189+FGF2 (“DF”; permissive for paraxial mesoderm) or (iv) BMP4+C59 (“B+C59”; permissive for lateral/cardiac mesoderm) for 24 hours in the presence of a TGFβ agonist (Activin, 10-25 ng/mL) or a TGFβR inhibitor (A-83-01, 1 μM) for 24 hours or (v) BMP4 (3 ng/mL)+FGF2 (20 ng/mL) (“B3F20”) for 24 hours in the presence of a TGFβ agonist (Activin, 3-25 ng/mL) or a TGFβR inhibitor (A-83-01, 1 μM) and qPCR for all experiments was conducted on day 2 (that is, after 48 total hours of hESC differentiation). […] Therefore, hESCs were differentiated towards primitive streak for 24 hours, and then subsequently transferred into (i) A-83-01+CHIR99021+FGF2 (ACF) in the presence or absence of one of two BMPR inhibitors (DMH1, 1 μM or LDN193189, 250 nM) for 24 hours and qPCR was conducted on day 2. Alternately, hESC-derived PS was transferred into (ii) CHIR99021+DM3189+FGF2 (CDF) for 24 hours in the presence or absence of a TGFβ agonist (25 ng/mL Activin) or one of two TGFβR inhibitors (SB-505124, 2 μM or A-83-01, 1 μM) for 24 hours and qPCR was conducted on day 2. […] E) To test the role of FGF in lateral mesoderm induction (on day 2 of hESC differentiation), NKX2.5-GFP hESCs were differentiated into mid primitive streak for 24 hours, and then were treated with BMP4+C59+SB505124 in the presence of an FGF agonist (FGF2, 20-50 ng/mL) or a FGFR inhibitor (PD173074, 100 nM) or a MAPK/ERK inhibitor (PD0325901, 500 nM) for 24 hours, and then all cultures were treated with BMP4+C59+SB505124+FGF2 for 24 hours more before being harvested on day 3 for FACS.

## Cc1cnc(-c2cnc(NCCNc3ccc(C#N)cn3)nc2-c2ccc(Cl)cc2Cl)[nH]1 [CHIR99021, 6-[[2-[[4-(2,4-Dichlorophenyl)-5-(5-methyl-1H-imidazol-2-yl)-2-pyrimidinyl]amino]ethyl]amino]-3-pyridinecarbonitrile]
[1]; CHIR together with Vismodegib
  dorsal somite marker PAX3 and sclerotome fate: sustained dorsal somite marker PAX3 while inhibiting the sclerotome fate

## Cc1cccc(-c2[nH]c(C(C)(C)C)nc2-c2ccc3c(c2)OCO3)n1 [SB-505124, 2-[4-(1,3-Benzodioxol-5-yl)-2-(1,1-dimethylethyl)-1H-imidazol-5-yl]-6-methyl-pyridine]
[2]; ACF with DMH1 1 μM or LDN193189 250 nM, CDF with SB-505124 2 μM or A-83-01 1 μM, 24 hours
  paraxial mesoderm induction (qPCR day 2): serve to induce paraxial mesoderm
[2]; BMP4 (50 ng/mL)+C59, 48 hours, SB-505124 2 μM or A-83-01 1 μM, P<0.01
  NKX2.5-GFP+ cardiac mesoderm induction (FACS day 3): increased NKX2.5-GFP^+ cardiac mesoderm induction

B1: BMP4: BMP family ligand, BMP agonist (protein, UniProt P12644 293-408, looked up)
Bone morphogenetic protein 4: SPKHHSQRARKKNKNCRRHSLYVDFSDVGWNDWIVAPPGYQAFYCHGDCPFPLADHLNSTNHAIVQTLVNSVNSSIPKACCVPTELSAISMLYLDEYDKVVLKNYQEMVVEGCGCR
[2]; A8301+C59, 24 hours, BMP4 10-30 ng/mL
  lateral mesoderm specification (qPCR): required to drive lateral mesoderm specification
[1]; 3 μM CHIR99021+150 nM Vismodegib, 48 hours, BMP4 10 ng/mL
  PAX7 expression: greatly enhances the expression of PAX7
[1]; CHIR99021+Vismodegib+BMP4, 24 hours
  PAX7 induction in central dermomyotome: important to induce PAX7 in central dermomyotome
